The numbers were not newly measured in publication PMC8650797 (The ocular surface, 2020), which cites them from elsewhere.

This series has as its system herpes simplex virus DNA polymerase. The conditions noted are these: native peptide; ref [29] Digard et al.

Take EETRRMLHRAFDTLA: the “activity in blocking DNA synthesis in vitro” value is recorded as “very poor activity”.
